For series [1], the target named is T1, human soluble guanylate cyclase alpha 1 and beta 1 subunits (sGC) (Homo sapiens, UniProt Q02108+Q02153).
T1 construct: expressed in transfected cells; host or cells: Chinese hamster ovary (CHO) cells, stably transfected
T1 sequence (Q02108 1-690): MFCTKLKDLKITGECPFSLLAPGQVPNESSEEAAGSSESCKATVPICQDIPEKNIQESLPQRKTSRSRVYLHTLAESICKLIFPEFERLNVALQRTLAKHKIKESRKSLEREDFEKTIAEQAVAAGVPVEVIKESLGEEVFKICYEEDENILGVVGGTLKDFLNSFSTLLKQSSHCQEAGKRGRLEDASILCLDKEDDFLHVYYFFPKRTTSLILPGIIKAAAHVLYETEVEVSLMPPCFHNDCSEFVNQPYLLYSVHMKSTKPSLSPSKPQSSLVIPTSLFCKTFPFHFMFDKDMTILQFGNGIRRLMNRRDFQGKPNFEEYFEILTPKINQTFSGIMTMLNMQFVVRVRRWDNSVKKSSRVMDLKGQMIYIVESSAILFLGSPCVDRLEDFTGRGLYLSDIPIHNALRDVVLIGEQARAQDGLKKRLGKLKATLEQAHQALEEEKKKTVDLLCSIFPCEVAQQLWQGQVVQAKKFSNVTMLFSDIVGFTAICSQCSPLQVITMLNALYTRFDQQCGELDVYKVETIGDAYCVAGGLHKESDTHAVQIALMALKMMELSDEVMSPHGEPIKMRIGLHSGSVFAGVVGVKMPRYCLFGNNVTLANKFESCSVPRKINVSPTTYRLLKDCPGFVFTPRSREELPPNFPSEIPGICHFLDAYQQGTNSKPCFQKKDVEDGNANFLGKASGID
T1 sequence (Q02153 1-619): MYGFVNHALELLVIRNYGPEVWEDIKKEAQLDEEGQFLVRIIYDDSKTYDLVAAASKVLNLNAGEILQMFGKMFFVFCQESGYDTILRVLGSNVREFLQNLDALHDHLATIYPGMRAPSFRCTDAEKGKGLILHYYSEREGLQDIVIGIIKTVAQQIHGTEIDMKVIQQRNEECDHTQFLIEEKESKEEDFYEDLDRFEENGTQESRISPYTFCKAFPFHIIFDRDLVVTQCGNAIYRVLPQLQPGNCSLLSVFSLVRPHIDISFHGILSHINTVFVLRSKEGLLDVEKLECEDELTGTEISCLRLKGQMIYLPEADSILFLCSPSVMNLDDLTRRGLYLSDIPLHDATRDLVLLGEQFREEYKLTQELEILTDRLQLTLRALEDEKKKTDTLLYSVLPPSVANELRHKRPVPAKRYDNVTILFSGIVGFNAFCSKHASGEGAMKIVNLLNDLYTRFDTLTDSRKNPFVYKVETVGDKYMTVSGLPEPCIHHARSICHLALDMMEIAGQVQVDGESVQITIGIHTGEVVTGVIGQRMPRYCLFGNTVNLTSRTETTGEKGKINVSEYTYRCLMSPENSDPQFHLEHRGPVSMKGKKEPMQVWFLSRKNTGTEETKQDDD
Description: sGC cellular activator assay (cGMP, HTRF). The class given is cell-based. Particulars: CHO cells stably expressing human sGC alpha 1/beta 1, preincubated with 40 microM ODQ; cGMP readout; assay run with and without 50% human serum, Table 2 does not say which. The procedure, abridged: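 Heme-oxidized conditions: ODQ (40 microM, 1 h) pretreatment of CHO cells stably expressing human α1/β1 sGC, in buffer containing 0.1% BSA and IBMX.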
On the technique in general: Time-resolved FRET reads energy transfer from a long-lived donor to a nearby acceptor.

Series [2] can be described thus: Assessment of solubility (McIlvaine buffers, 24 h shake, UPLC-UV). The series is classed as physicochemical. The note with it: kinetic from dmso stock. The procedure, abridged: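 Compounds from 10 mM DMSO stocks were shaken for 24 h at room temperature in McIlvaine buffers at pH 2.2, 4.5 and 6.8 (2.5% v/v DMSO final), then filtered. Filtrates were quantified by UPLC-UV at 254 nm against a 50:50 acetonitrile/water reference assumed fully dissolved, as a single determination.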

Converted amounts (≈) assume the structure as drawn.

A word on the EC50: it is the concentration at which the effect is half-maximal. A low value points to greater potency. One may read the solubility as the dissolved amount per volume that the medium holds. A higher solubility goes with much dissolved substance.

In turn, `COc1c(C(=O)O)cnn1-c1cccc(-c2cccc(C)c2OCc2ccc3c(c2)CCN(C2CC(C)OC(C)C2)C3)n1` (stereo not drawn) [Compound 62] yielded a concentration for a half-maximal effect (EC50) in series [1] of 0.024 µM. Further, the solubility at 24 h is 110 µg/mL (≈ 189 µM) in series [2] (pH 2.2, aqueous buffer); 88 µg/mL (≈ 151 µM) in series [2] (pH 4.5, aqueous buffer); 91 µg/mL (≈ 156 µM) in series [2] (pH 6.8, aqueous buffer).

In the case of `COc1c(C(=O)O)cnn1-c1cccc(-c2cccc(F)c2OCc2ccc3c(c2)CCN(C2CCOCC2)C3)n1` [Compound 63], in series [1], the EC50 was found to be 0.082 µM. The solubility at 24 h in series [2] (pH 2.2, aqueous buffer) amounted to 110 µg/mL (≈ 197 µM); in series [2] (pH 4.5, aqueous buffer), 90 µg/mL (≈ 161 µM); in series [2] (pH 6.8, aqueous buffer), 92 µg/mL (≈ 165 µM).

In series [1], `CCOc1c(C(=O)O)cnn1-c1cccc(-c2cccc(C)c2OCc2ccc3c(c2)CCN(C2CCOCC2C)C3)n1` (stereo not drawn) [Compound 64] registered an EC50 of 0.071 µM. For the same compound, the solubility at 24 h in series [2] (pH 2.2, aqueous buffer) amounted to 100 µg/mL (≈ 172 µM); in series [2] (pH 4.5, aqueous buffer), 66 µg/mL (≈ 113 µM); in series [2] (pH 6.8, aqueous buffer), 66 µg/mL (≈ 113 µM).

With `CCOc1c(C(=O)O)cnn1-c1cccc(-c2cccc(C)c2OCc2ccc3c(c2)CCN(C2CC(C)OC(C)C2)C3)n1` (stereo not drawn) [Compound 65], the concentration giving a half-maximal response (EC50) in series [1] came out at 0.056 µM. Also, the solubility at 24 h in series [2] (pH 2.2, aqueous buffer) is 110 µg/mL (≈ 184 µM); in series [2] (pH 4.5, aqueous buffer), 84 µg/mL (≈ 141 µM); in series [2] (pH 6.8, aqueous buffer), 74 µg/mL (≈ 124 µM).

`CCOc1c(C(=O)O)cnn1-c1cccc(-c2cccc(C)c2OCc2ccc3c(c2)CCN(C2CCOC(C)(C)C2)C3)n1` (stereo not drawn) [Compound 66] yielded a concentration for a half-maximal effect (EC50) in series [1] of 0.11 µM. The solubility at 24 h in series [2] (pH 2.2, aqueous buffer) came to 63 µg/mL (≈ 106 µM); in series [2] (pH 4.5, aqueous buffer), 54 µg/mL (≈ 90.5 µM); in series [2] (pH 6.8, aqueous buffer) it was 55 µg/mL (≈ 92.2 µM).

Consider `CCOc1c(C(=O)O)cnn1-c1cccc(-c2cccc(C)c2OCc2ccc3c(c2)CCN(C2CC(C)(C)OC(C)(C)C2)C3)n1` [Compound 67], for which, in series [1], the EC50 stood at 0.32 µM. The solubility at 24 h in series [2] (pH 2.2, aqueous buffer) turned out to be 90 µg/mL (≈ 144 µM); in series [2] (pH 4.5, aqueous buffer) it was 76 µg/mL (≈ 122 µM); in series [2] (pH 6.8, aqueous buffer), 78 µg/mL (≈ 125 µM).

In turn, `CCOc1c(C(=O)O)cnn1-c1cccc(-c2cccc(C)c2OCc2ccc3c(c2)CCN(CC2CCOC2)C3)n1` (stereo not drawn) [Compound 68] came in with an EC50 in series [1] of 0.038 µM. Further, the solubility at 24 h worked out at 85 µg/mL (≈ 149 µM) in series [2] (pH 2.2, aqueous buffer); 71 µg/mL (≈ 125 µM) in series [2] (pH 4.5, aqueous buffer); 74 µg/mL (≈ 130 µM) in series [2] (pH 6.8, aqueous buffer).

For `CCOc1c(C(=O)O)cnn1-c1cccc(-c2cccc(C)c2OCc2ccc3c(c2)CCN(CC2CCOCC2)C3)n1` [Compound 69], a half-maximal effect in series [1] (EC50) was put at 0.061 µM. The solubility at 24 h in series [2] (pH 2.2, aqueous buffer) is 91 µg/mL (≈ 156 µM); in series [2] (pH 4.5, aqueous buffer), 77 µg/mL (≈ 132 µM); in series [2] (pH 6.8, aqueous buffer), 80 µg/mL (≈ 137 µM).

For the compound `CCOc1c(C(=O)O)cnn1-c1cccc(-c2cccc(C)c2OCc2ccc3c(c2)CCN(C(C)CS(C)(=O)=O)C3)n1` (stereo not drawn) [Compound 70], it took 0.18 µM to reach a half-maximal effect in series [1] (EC50). Also, the solubility at 24 h worked out at 86 µg/mL (≈ 142 µM) in series [2] (pH 2.2, aqueous buffer); 57 µg/mL (≈ 94.3 µM) in series [2] (pH 4.5, aqueous buffer); 64 µg/mL (≈ 106 µM) in series [2] (pH 6.8, aqueous buffer).

With `CCOc1c(C(=O)O)cnn1-c1cccc(-c2cccc(C)c2OCc2ccc3c(c2)CCN(C2CCOC2C)C3)n1` (stereo not drawn) [Compound 71], a half-maximal effect in series [1] (EC50) was put at 0.067 µM. Besides, the solubility at 24 h in series [2] (pH 2.2, aqueous buffer) is 94 µg/mL (≈ 165 µM); in series [2] (pH 4.5, aqueous buffer), 75 µg/mL (≈ 132 µM); in series [2] (pH 6.8, aqueous buffer), 78 µg/mL (≈ 137 µM).

`COc1c(C(=O)O)cnn1-c1cccc(-c2cccc(C)c2OCc2ccc3c(c2)CCN(CC2CC2(F)F)C3)n1` (stereo not drawn) [Compound 72, 1-(6-{2-[2-(2,2-difluoro-cyclopropylmethyl)-1,2,3,4-tetrahydro-isoquinolin-6-ylmethoxy]-3-methyl-phenyl}-pyridin-2-yl)-5-methoxy-1H-pyrazole-4-carboxylic acid]: the half-maximal effective concentration (EC50) in series [1] stood at 0.017 µM. For the same compound, the solubility at 24 h in series [2] (pH 2.2, aqueous buffer) is 44 µg/mL (≈ 78.5 µM); in series [2] (pH 4.5, aqueous buffer), 46 µg/mL (≈ 82.1 µM); in series [2] (pH 6.8, aqueous buffer), 67 µg/mL (≈ 120 µM).

`COc1c(C(=O)O)cnn1-c1cccc(-c2cccc(C)c2OCc2ccc3c(c2)CCN(C2CC(C)(C)OC(C)(C)C2)C3)n1` [Compound 73] registered an EC50 in series [1] of 0.25 µM. In addition, the solubility at 24 h turned out to be 86 µg/mL (≈ 141 µM) in series [2] (pH 2.2, aqueous buffer); 67 µg/mL (≈ 110 µM) in series [2] (pH 4.5, aqueous buffer); 71 µg/mL (≈ 116 µM) in series [2] (pH 6.8, aqueous buffer).

These data come from patent publication US8906904B2, “Alkoxy pyrazoles as soluble guanylate cyclase activators” (Boehringer Ingelheim International GmbH, priority 2012, dated 2014).
